Where two headings read alike, the source gives them in different places.
Assays:
[1] = system: UOCB1 B-ALL cell line; assay: Cytotoxicity assay, UOCB1; assay type: cell-based, human; conditions: four days in culture, Alamar blue assay or automated microscopy, ± SD, three experiments
Protocol: (§1) Cell lines were cultured in Opti-MEM medium (Gibco, Life Technologies Corporation, Burlington, Ontario) supplemented with 10% heat inactivated fetal bovine serum (FBS) (Gibco), 100 units/ml penicillin and 100 units/ml streptomycin (Gibco) and 0.05 mM 2-mercaptoethanol (Sigma-Aldrich, Oakville, Ontario) in T25 flasks (Nalge Nunc, Rochester, New York) or T75 flasks (Corning Incorporated, Corning, New York). All cell cultures were maintained at 37°C in a humidified incubator with 5% CO2.
(§2) For cytotoxicity profiling of Aurora kinase inhibitors against leukemia cell lines, inhibitors or vehicle control (DMSO, Sigma-Aldrich) were diluted in 100 µl of Opti-MEM per well in 96 well plates (Grenier Bio-One, Monroe, North Carolina) in triplicate at final concentrations ranging from 1×10^−6 to 10 µM. 1×10^4 cells per well were seeded and plates were incubated for 4 days. Following incubation for 4 days, cell survival was quantified by Alamar blue assay (Invitrogen) or automated inverted microscopy using the Celigo Cell Cytometer (Cyntellect, San Diego, California). […] During this period of incubation, the absorbance at 570–620 nm was measured (Opsys MR Plate Reader, Dynex Technologies, Chantilly, Virginia) at various time points, depending on the cell line or sample. Percent survival was calculated by comparing the absorbance ratio of the test well to the control well multiplied by 100%, as indicated in the following formula: […]
(§3) For automated inverted microscopy, the number of cells in each well was determined using the direct cell counting application as described previously. Briefly, following adjustment of image acquisition settings for bright-field imaging, the wells containing cells and appropriate dilutions of inhibitors were individually scanned. Based on these images, analysis parameters, including intensity threshold and cell diameter, were modified for optimal inclusion of viable cells in treated and control wells. These parameters were applied for subsequent replicates involving the same leukemia cell line or sample. The percent survival was then calculated as a ratio of the number of cells in treated wells to the number of cells in control wells multiplied by 100%. Given that Aurora kinase inhibitors interfere with cytokinesis, cells that are committed to death may still contain enlarging but intact cytoplasmic content before the eventual loss of cytoplasmic membrane integrity. The accuracy of Alamar blue assay may be, in theory, affected by the timing of these events.

[2] = system: Aurora-A; design: method as in earlier work; conditions: literature values; ref [10],[22],[27],[40],[44]–[64] as listed per inhibitor in Table 1; read-out: Targets (IC50 Value): Aurora-A; cited from earlier work
[3] = system: Patient #3 AML/CML primary leukemia cells; assay: Cytotoxicity assay, primary sample Patient #3; assay type: cell-based, human; conditions: Homo sapiens, 96 h, four days in culture, Alamar blue assay or automated microscopy, one complete study
Protocol: (§4) These include B-ALL (Patient #1), relapsed AML (Patient #2), AML/CML (Patient #3), infant ALL (Patient #4), and initial ALL presenting with secondary AML (Patient #5). […] The diluted sample was then layered on a Ficoll-Paque (GE Healthcare, Piscataway, New Jersey) gradient at a 1∶2 ratio of Ficoll to diluted sample. Samples were then centrifuged 1800 rpm for 20 minutes at room temperature. The buffy coat was removed with a pipette and transferred to a new centrifuge tube and diluted with PBS. After an additional centrifugation at 1200 rpm, the white blood cell pellet was washed with PBS and centrifuged one last time. Cells were re-suspended in Opti-MEM and viable cells were counted using trypan blue (Invitrogen, Life Technologies Corporation, Burlington, Ontario) exclusion on a haemocytometer. An identical protocol was followed for the isolation of white blood cells, referred to as “normal lymphocytes” in the following paragraphs, from healthy volunteers. Samples grown in culture for up to six months were cultured in Opti-MEM medium supplemented with 10% heat inactivated FBS, penicillin/streptomycin and 2-mercaptoethanol.
as §2, §3

[4] = system: HL-60 RA APML cell line; assay: Cytotoxicity assay, HL-60 RA; assay type: cell-based, human; conditions: APML cell line HL-60 RA, four days in culture, Alamar blue assay or automated microscopy, ± SD, three experiments
Protocol: as §1, §2, §3

[5] = system: Patient #1 B-ALL primary leukemia cells; assay: Cytotoxicity assay, primary sample Patient #1; assay type: cell-based, human; conditions: four days in culture, Alamar blue assay or automated microscopy, one complete study
Protocol: as §4, §2, §3

[6] = system: TIB-202 AML cell line; assay: Cytotoxicity assay, TIB-202; assay type: cell-based, human; conditions: AML cell line TIB-202, four days in culture, Alamar blue assay or automated microscopy, ± SD, three experiments
Protocol: as §1, §2, §3

[7] = system: Normal Lymphocytes; assay: Cytotoxicity assay, normal lymphocytes; assay type: cell-based, human; conditions: normal lymphocytes (control for non-leukemia cytotoxicity), four days in culture, ± SD, three experiments
Protocol: as §4, §2, §3

[8] = system: Nalm6 B-ALL cell line; assay: Cytotoxicity assay, Nalm6; assay type: cell-based, human; conditions: four days in culture, Alamar blue assay or automated microscopy, ± SD, three experiments
Protocol: as §1, §2, §3

[9] = system: C1 B-ALL cell line; assay: Cytotoxicity assay, C1; assay type: cell-based, human; conditions: four days in culture, Alamar blue assay or automated microscopy, ± SD, three experiments
Protocol: as §1, §2, §3

[10] = system: HL-60 APML cell line; assay: Cytotoxicity assay, HL-60; assay type: cell-based, human; conditions: APML cell line HL-60, four days in culture, Alamar blue assay or automated microscopy, ± SD, three experiments
Protocol: as §1, §2, §3

[11] = system: CEM T-ALL cell line; assay: Cytotoxicity assay, CEM; assay type: cell-based, human; conditions: four days in culture, Alamar blue assay or automated microscopy, ± SD, three experiments
Protocol: as §1, §2, §3

[12] = system: Patient #5 ALL/AML primary leukemia cells; assay: Cytotoxicity assay, primary sample Patient #5; assay type: cell-based, human; conditions: primary sample, four days in culture, Alamar blue assay or automated microscopy, one complete study, read-out: IC50, Patient #5 ALL/AML
Protocol: as §4, §2, §3

[13] = system: B1 B-ALL cell line; assay: Cytotoxicity assay, B1; assay type: cell-based, human; conditions: four days in culture, Alamar blue assay or automated microscopy, ± SD, three experiments
Protocol: as §1, §2, §3

[14] = system: KOPN8 B-ALL cell line; assay: Cytotoxicity assay, KOPN8; assay type: cell-based, human; conditions: four days in culture, Alamar blue assay or automated microscopy, ± SD, three experiments
Protocol: as §1, §2, §3

[15] = system: Patient #2 relapsed AML primary leukemia cells; assay: Cytotoxicity assay, primary sample Patient #2; assay type: cell-based, human; conditions: four days in culture, Alamar blue assay or automated microscopy, one complete study
Protocol: as §4, §2, §3

[16] = system: SEM B-ALL cell line; assay: Cytotoxicity assay, SEM; assay type: cell-based; conditions: Homo sapiens, 96 h, four days in culture, Alamar blue assay or automated microscopy, ± SD, three experiments
Protocol: as §1, §2, §3

[17] = system: Molt-3 T-ALL cell line; assay: Cytotoxicity assay, Molt-3; assay type: cell-based, human; conditions: T-ALL cell line Molt-3, four days in culture, Alamar blue assay or automated microscopy, ± SD, three experiments
Protocol: as §1, §2, §3

[18] = system: MV4-11 AML cell line; assay: Cytotoxicity assay, MV4-11; assay type: cell-based, human; conditions: AML cell line MV4-11, four days in culture, Alamar blue assay or automated microscopy, ± SD, three experiments
Protocol: as §1, §2, §3

[19] = system: NB4 APML cell line; assay: Cytotoxicity assay, NB4; assay type: cell-based, human; conditions: four days in culture, Alamar blue assay or automated microscopy, ± SD, three experiments
Protocol: as §1, §2, §3

[20] = system: normal cells versus leukemia cell lines; assay: Comparison of cytotoxicity IC50 values, normal cells versus leukemia cell lines; assay type: cell-based, human; conditions: normal lymphocytes and bone marrow stroma versus leukemia cell lines of Table 2
Protocol: as §2, §3

[21] = system: Aurora-B; design: method as in earlier work; conditions: literature values; ref [10],[22],[27],[40],[44]–[64] as listed per inhibitor in Table 1; read-out: Targets (IC50 Value): Aurora-B; cited from earlier work
[22] = system: Patient #4 infant leukemia primary cells; assay: Cytotoxicity assay, primary sample Patient #4; assay type: cell-based, human; conditions: four days in culture, Alamar blue assay or automated microscopy, one complete study
Protocol: as §4, §2, §3

[23] = system: Bone Marrow Stroma; assay: Cytotoxicity assay, bone marrow stroma; assay type: cell-based, human; conditions: bone marrow stroma (control for non-leukemia cytotoxicity), four days in culture, ± SD, three experiments
Protocol: as §2, §3

[24] = system: Molm13 AML cell line; assay: Cytotoxicity assay, Molm13; assay type: cell-based, human; conditions: four days in culture, Alamar blue assay or automated microscopy, ± SD, three experiments
Protocol: as §1, §2, §3

CCN(CCCOc1ccc2c(Nc3cc(CC(=O)Nc4cccc(F)c4)n[nH]3)ncnc2c1)CCOP(=O)(O)O [AZD1152]
IC50 ([1]; Homo sapiens, UoC-B1, 96 h): 0.6 nM | IC50 [2]: […] | IC50 [3]: > 10000 nM | IC50 ([4]; Homo sapiens, 96 h): 0.7 nM | IC50 ([5]; Homo sapiens, 96 h): 0.005 nM | IC50 ([6]; Homo sapiens, 96 h): 500 ± 200 nM | IC50 ([7]; Homo sapiens, Lymphocyte, 96 h): > 10000 nM | IC50 ([8]; Homo sapiens, NALM-6, 96 h): 8 ± 2 nM | IC50 ([9]; Homo sapiens, 96 h): 0.8 nM | IC50 ([10]; Homo sapiens, 96 h): 300 ± 90 nM | IC50 ([11]; Homo sapiens, 96 h): < 0.001 nM | IC50 ([12]; Homo sapiens, 96 h): 0.02 nM | IC50 ([13]; Homo sapiens, 96 h): 200 ± 100 nM | IC50 ([14]; Homo sapiens, KOPN-8, 96 h): 0.2 nM | IC50 ([15]; Homo sapiens, 96 h): 600 nM | IC50 [16]: 100 ± 60 nM | IC50 ([17]; Homo sapiens, 96 h): < 0.001 nM | IC50 ([18]; Homo sapiens, 96 h): 0.9 nM | IC50 ([19]; Homo sapiens, 96 h): 50 ± 20 nM | IC50 values for the normal cells compared with IC50 values for the leukemia cell lines (potential therapeutic window) [20]: higher than the IC50 values for the leukemia cell lines | IC50 [21]: […] | IC50 ([22]; Homo sapiens, 96 h): > 10000 nM | IC50 ([23]; Homo sapiens, 96 h): > 10000 nM | IC50 ([24]; Homo sapiens, MOLM-13, 96 h): 7 ± 3 nM

CN(C)c1ccc(-c2nc3ncc(Cl)c(N4CCN(CC(=O)Nc5nccs5)CC4)c3[nH]2)cc1 [CCT129202]
IC50 [1]: 900 ± 90 nM | IC50 [2]: 40 nM | IC50 [4]: 8000 ± 500 nM | IC50 [5]: 700 nM | IC50 [6]: 50 ± 5 nM | IC50 [7]: > 10000 nM | IC50 [8]: 2000 ± 800 nM | IC50 [9]: 3000 ± 800 nM | IC50 [10]: 7000 ± 800 nM | IC50 [11]: 900 ± 50 nM | IC50 [12]: 70 nM | IC50 [13]: 3000 ± 600 nM | IC50 [14]: 700 ± 100 nM | IC50 [15]: 400 nM | IC50 [17]: 2000 ± 600 nM | IC50 [18]: 100 ± 60 nM | IC50 [19]: > 10000 nM | IC50 values for the normal cells compared with IC50 values for the leukemia cell lines (potential therapeutic window) [20]: lower than the IC50 values for the normal cells, but not as pronounced | IC50 [21]: 200 nM | IC50 [22]: > 10000 nM | IC50 [23]: 1000 ± 700 nM | IC50 [24]: 5000 ± 900 nM
